Assay results reported in PubChem BioAssay AID248 (DTP/NCI, 2004).
“And” between values parts separate entries of the source, which are not always exact repeats. Identical values can stand only once. Inconclusive results and toxic doses are left out. Rule as the data show it: active = T/C of 150% or more; inactive = T/C below 125%.

Tested on: L1210 leukemia ip in BDF1 mice, survival T/C
Assay: NCI In Vivo Anticancer Drug Screen. Data for tumor model L1210 Leukemia (intraperitoneal) in B6D2F1 (BDF1) mice
Conditions: endpoint: mean survival time, higher = longer survival
In short: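 Tumor was transplanted into mice, which were then dosed with test compound or vehicle alone. Survival was recorded for each group, and the treated figure was expressed relative to the control figure.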

[1] = dose: 100.0 mg/kg/injection, schedule: Q01DX009 (ip), vehicle: saline with Tween-80
[2] = dose: 100.0 mg/kg/injection, schedule: Q04DX003 (ip), vehicle: Klucel (hydroxypropylcellulose) (HPC)
[3] = dose: 200.0 mg/kg/injection, schedule: Q04DX003 (ip), vehicle: Klucel (hydroxypropylcellulose) (HPC)
[4] = dose: 400.0 mg/kg/injection, schedule: Q04DX003 (ip), vehicle: Klucel (hydroxypropylcellulose) (HPC)
[5] = dose: 100.0 mg/kg/injection, schedule: Q01DX001 (ip), vehicle: saline
[6] = dose: 200.0 mg/kg/injection, schedule: Q01DX001 (ip), vehicle: saline
[7] = dose: 400.0 mg/kg/injection, schedule: Q01DX001 (ip), vehicle: saline
[8] = dose: 100.0 mg/kg/injection, schedule: Q01DX001 (ip), vehicle: carboxymethylcellulose (CMC)
[9] = dose: 200.0 mg/kg/injection, schedule: Q01DX001 (ip), vehicle: carboxymethylcellulose (CMC)
[10] = dose: 400.0 mg/kg/injection, schedule: Q01DX001 (ip), vehicle: carboxymethylcellulose (CMC)
[11] = dose: 100.0 mg/kg/injection, schedule: Q04DX003 (ip), vehicle: saline
[12] = dose: 200.0 mg/kg/injection, schedule: Q04DX003 (ip), vehicle: saline
[13] = dose: 400.0 mg/kg/injection, schedule: Q04DX003 (ip), vehicle: saline

Measured: T/C

O=C1CC2CCCCC2O1 (configuration not stated)
inactive: dose: 50.0 mg/kg/injection, schedule: Q01DX009 (ip), vehicle: saline with Tween-80 96 % of control | dose: 75.0 mg/kg/injection, schedule: Q01DX001 (ip), vehicle: other 103 % of control | [1] 88 % of control | dose: 150.0 mg/kg/injection, schedule: Q01DX001 (ip), vehicle: other 97 % of control and 115 % of control

OC1CCC2C=CCC1S2 (configuration not stated)
inactive: dose: 100.0 mg/kg/injection, schedule: Q01DX009 (ip), vehicle: gum acacia 101 % of control | dose: 200.0 mg/kg/injection, schedule: Q01DX009 (ip), vehicle: gum acacia 100 % of control | dose: 400.0 mg/kg/injection, schedule: Q01DX009 (ip), vehicle: gum acacia 97 % of control

CCC(=O)Nc1cccc(OC(C)=O)c1
inactive: [1] 91 % of control | dose: 200.0 mg/kg/injection, schedule: Q01DX009 (ip), vehicle: saline with Tween-80 90 % of control | dose: 400.0 mg/kg/injection, schedule: Q01DX009 (ip), vehicle: saline with Tween-80 107 % of control

CC1(C)OC2C(CO)OC(n3cnc4c(=O)[nH]cnc43)C2O1 (configuration not stated)
inactive: dose: 75.0 mg/kg/injection, schedule: Q01DX001 (ip), vehicle: saline 102 % of control | dose: 150.0 mg/kg/injection, schedule: Q01DX001 (ip), vehicle: saline 92 % of control

CCc1cc(C(=O)NC(CCC(=O)O)C(=O)O)ccc1NCc1cnc2nc(N)[nH]c(=O)c2n1 (configuration not stated)
inactive: dose: 50.0 mg/kg/injection, schedule: Q01DX001 (ip), vehicle: saline with Tween-80 106 % of control | dose: 100.0 mg/kg/injection, schedule: Q01DX001 (ip), vehicle: saline with Tween-80 100 % of control | dose: 200.0 mg/kg/injection, schedule: Q01DX001 (ip), vehicle: saline with Tween-80 100 % of control

CC(C)OC(C)(C=O)OC(=O)Nc1cccc2ccccc12 (configuration not stated)
inactive: dose: 100.0 mg/kg/injection, schedule: Q04DX002 (sc), vehicle: olive oil, sesame oil, peanut oil 100 % of control | dose: 200.0 mg/kg/injection, schedule: Q04DX002 (sc), vehicle: olive oil, sesame oil, peanut oil 95 % of control | dose: 400.0 mg/kg/injection, schedule: Q04DX002 (sc), vehicle: olive oil, sesame oil, peanut oil 103 % of control

CC(=O)c1c(C)[nH]c(C(=O)OC(C)(C)C)c1C
inactive: dose: 100.0 mg/kg/injection, schedule: Q01DX001 (ip), vehicle: Klucel (hydroxypropylcellulose) (HPC) 95 % of control | [2] 102 % of control | dose: 200.0 mg/kg/injection, schedule: Q01DX001 (ip), vehicle: Klucel (hydroxypropylcellulose) (HPC) 97 % of control | [3] 96 % of control | dose: 400.0 mg/kg/injection, schedule: Q01DX001 (ip), vehicle: Klucel (hydroxypropylcellulose) (HPC) 95 % of control | [4] 96 % of control

O=C(O)c1ccccc1-c1c2ccc(=O)c(Br)c-2oc2c(Br)c(O)ccc12
inactive: dose: 50.0 mg/kg/injection, schedule: Q01DX001 (ip), vehicle: saline 104 % of control | [5] 96 % of control | [6] 98 % of control | [7] 102 % of control

O=C(Nc1ccccc1)c1ccc(C(=O)Nc2ccccc2)cc1
inactive: [8] 86 % of control | dose: 100.0 mg/kg/injection, schedule: Q01DX001 (oral), vehicle: carboxymethylcellulose (CMC) 108 % of control | dose: 100.0 mg/kg/injection, schedule: Q01DX009 (ip), vehicle: carboxymethylcellulose (CMC) 101 % of control | dose: 100.0 mg/kg/injection, schedule: Q01DX009 (oral), vehicle: carboxymethylcellulose (CMC) 103 % of control | [9] 87 % of control | dose: 200.0 mg/kg/injection, schedule: Q01DX001 (oral), vehicle: carboxymethylcellulose (CMC) 108 % of control | dose: 200.0 mg/kg/injection, schedule: Q01DX009 (ip), vehicle: carboxymethylcellulose (CMC) 100 % of control | dose: 200.0 mg/kg/injection, schedule: Q01DX009 (oral), vehicle: carboxymethylcellulose (CMC) 105 % of control | [10] 87 % of control | dose: 400.0 mg/kg/injection, schedule: Q01DX001 (oral), vehicle: carboxymethylcellulose (CMC) 104 % of control | dose: 400.0 mg/kg/injection, schedule: Q01DX009 (ip), vehicle: carboxymethylcellulose (CMC) 95 % of control | dose: 400.0 mg/kg/injection, schedule: Q01DX009 (oral), vehicle: carboxymethylcellulose (CMC) 111 % of control | dose: 800.0 mg/kg/injection, schedule: Q01DX001 (ip), vehicle: carboxymethylcellulose (CMC) 92 % of control | dose: 800.0 mg/kg/injection, schedule: Q01DX001 (oral), vehicle: carboxymethylcellulose (CMC) 106 % of control | dose: 800.0 mg/kg/injection, schedule: Q01DX009 (ip), vehicle: carboxymethylcellulose (CMC) 97 % of control

Cc1cc2c(cc1C)N(C(=O)CCl)CCN2C(=O)CCl
inactive: dose: 5.0 mg/kg/injection, schedule: Q01DX Z (ip), vehicle: carboxymethylcellulose (CMC) 97 % of control | dose: 10.0 mg/kg/injection, schedule: Q01DX Z (ip), vehicle: carboxymethylcellulose (CMC) 105 % of control | dose: 20.0 mg/kg/injection, schedule: Q01DX Z (ip), vehicle: carboxymethylcellulose (CMC) 100 % of control | [5] 104 % of control | [6] 98 % of control | [7] 98 % of control

O=C(CCCc1ccc([N+](=O)[O-])cc1)Nc1ccc(S(=O)(=O)F)cc1
inactive: [5] 101 % of control | [6] 100 % of control | [7] 97 % of control

C/C=C/CC1=C(O)c2ccccc2C(=O)C1=O
inactive: dose: 100.0 mg/kg/injection, schedule: Q01DX001 (ip), vehicle: water 98 % of control

CC(NC(=O)C1CC2c3cccc4[nH]cc(c34)CC2N(C)C1)C(C)(C)C (configuration not stated)
inactive: dose: 20.0 mg/kg/injection, schedule: Q01DX001 (ip), vehicle: Klucel (hydroxypropylcellulose) (HPC) 96 % of control | dose: 40.0 mg/kg/injection, schedule: Q01DX001 (ip), vehicle: Klucel (hydroxypropylcellulose) (HPC) 101 % of control | dose: 80.0 mg/kg/injection, schedule: Q01DX001 (ip), vehicle: Klucel (hydroxypropylcellulose) (HPC) 104 % of control

OCC1OC(Oc2ccccc2)C(O)C(O)C1O (configuration not stated)
inactive: [11] 96 % of control | [12] 105 % of control | [13] 100 % of control

N#CC(OC(=O)c1ccccc1)c1ccc([N+](=O)[O-])cc1 (configuration not stated)
inactive: [5] 102 % of control

COc1ccc2c[n+](C)c3c4cc(OC)c(OC)cc4ccc3c2c1
inactive: dose: 6.25 mg/kg/injection, schedule: Q04DX003 (ip), vehicle: saline with Tween-80 105 % of control | dose: 12.5 mg/kg/injection, schedule: Q04DX003 (ip), vehicle: saline with Tween-80 105 % of control | dose: 25.0 mg/kg/injection, schedule: Q04DX003 (ip), vehicle: saline with Tween-80 105 % of control

Cc1cc(Cl)c2ccccc2[n+]1C
inactive: [11] 98 % of control

CCS(=O)(=O)C(c1ccccc1)S(=O)(=O)CC
inactive: [8] 95 % of control | [9] 87 % of control | [10] 98 % of control

CCn1cnc2c(SC)ncnc21
inactive: dose: 75.0 mg/kg/injection, schedule: Q01DX001 (ip), vehicle: acetone 101 % of control | dose: 150.0 mg/kg/injection, schedule: Q01DX001 (ip), vehicle: acetone 106 % of control | dose: 300.0 mg/kg/injection, schedule: Q01DX001 (ip), vehicle: acetone 108 % of control

O=C1OC(=O)C2C1C1(Cl)C(Cl)=C(Cl)C2(Cl)C2C(=O)OC(=O)C21 (configuration not stated)
inactive: dose: 100.0 mg/kg/injection, schedule: Q01DX009 (ip), vehicle: saline 94 % of control | [11] 95 % of control | dose: 200.0 mg/kg/injection, schedule: Q01DX009 (ip), vehicle: saline 90 % of control | [12] 95 % of control | dose: 400.0 mg/kg/injection, schedule: Q01DX009 (ip), vehicle: saline 91 % of control | [13] 95 % of control

CCOC(=O)c1ccc(NC(=O)Nc2ccc(Cl)cc2)cc1
inactive: dose: 100.0 mg/kg/injection, schedule: Q01DX009 (ip), vehicle: Klucel (hydroxypropylcellulose) (HPC) 97 % of control | [2] 96 % of control | dose: 200.0 mg/kg/injection, schedule: Q01DX009 (ip), vehicle: Klucel (hydroxypropylcellulose) (HPC) 104 % of control | [3] 104 % of control | dose: 400.0 mg/kg/injection, schedule: Q01DX009 (ip), vehicle: Klucel (hydroxypropylcellulose) (HPC) 97 % of control | [4] 100 % of control
